Laboratory results taken from US8501806B2, “Methods for preventing or reducing colon carcinogenesis” (Nogra Pharma Limited, priority 2008, dated 2013).

System: 4T1-derived tumors
Assay: 4T1 syngeneic tumor model
Type: in vivo, Balb/c mice
Settings: FIG. 10; daily subcutaneous or intraperitoneal 8 mg/kg/mouse, starting day 3
Description: Eight- to 10-week-old female Balb/c mice were used for the 4T1 syngeneic tumor model. 4T1 cells (1×10^5 cells in 300 μl PBS 1×) were injected subcutaneously (s.c.) into the flank of mice, whose fur was shaved and depilated. Three groups of 8 mice each were implanted with 4T1. The first group received daily s.c. 300 μl PBS (control), the remaining groups were injected daily with compound 14 (8 mg/kg/mouse) s.c. or intraperitoneally (i.p.). Both compound 14 and PBS were administered starting on day 3. Mice were monitored over the time for weight loss and sacrificed at day 14. Tumors were photographed, and excised, and their mass calculated according to the following formula: ½×(short diameter)×(long diameter)×(height).

In the case of `COc1ccc(N)cc1C(=O)NO` [compound 14, 2-methoxy-5-amino-N-hydroxybenzamide], the “4T1-derived tumor mass in comparison to controls” value is reported as “significant decrease”.
